Reference: patent US20140364454A1, “METAL-CHELATING COMPOUNDS HAVING AT LEAST ONE POLYAMINO CHAIN” (UNIVERSITE DE RENNES I, priority 2011, published 2014)
Where two headings read alike, the source gives them in different places.

How the values were obtained:
[1] = tested on: mutant cell line CHO-MG without PTS; assay: Anti-proliferative effect on CHO-MG cells without PTS, counting of cell nuclei; format: cell-based, hamster; details: for IC50: 72 h treatment; for Ratio IC50 (CHO-MG/CHO): selectivity of recognition by the PTS
Text: The IC50 inhibitor concentration corresponding to the concentration in Quilamines enables the inhibition at 50% of the cell proliferation was deduced from the dose-effect curves of numeration of the nuclei of the living cells on the CHO and CHO-MG cell lines. These dose-effect curves are sometimes bi-phase curves as in the case of Quilamine HQ1-44 which has an anti-proliferative constituent (without concomitant release of LDH in supernatant) in the range of concentrations of 0.4 to 3 micromoles per liter and a second cytotoxic constituent accompanied by membrane toxicity expressed by the release of LDH for concentrations of over […]. The lower the value of IC50, the greater the efficiency of the anti-proliferative effect of the tested chelators.
Furthermore, the ratio of the IC50 inhibitor concentrations found for the CHO-MG and the CHO cell lines (Ratio IC50 (CHO-MG/CHO)) was computed for several Quilamines according to the invention. This ratio makes it possible to estimate the selectivity of recognition of the different chelators by the PTS: the higher the ratio, the more clearly is the chelator recognized by the PTS. When this ratio is close to 1, the tested chelator is not recognized or is little recognized by the PTS.

CHO cells = assay: Cytotoxic effect on CHO cells, LDH release in supernatants; details: CHO
Method: (§1) The in vitro efficacy of different Quilamines was tested on a wild cell line (CHO) of hamster ovarian cells having PTS and a mutant cell line CHO-MG without PTS. The two cell types CHO and CHO-MG were treated, 24 hours after being seeded in 96-well microplates, by concentrations of different Quilamines ranging from 0.1 to 400 micromoles per liter. The cytostatic (anti-proliferative) effects and cytotoxic effects of Quilamine after 72 hours' treatment of the cells were assessed respectively by counting cell nuclei after DNA marking by the Hoechst 33342 fluorescent intercalant dye and by analysis of membrane damage detected by the dosing of the lactate dehydrogenase activity (LHD) in the supernatants.
(§2) A comparison was made of the cytostatic or anti-proliferative action and the cytotoxic action for 72 h of treatment by Quilamine HQ1-44 and 8-hydroxyquinoline and ICL670, on the CHO cell lines in the presence and without the presence of exogenous iron, in the form of Fe(III) citrate in a concentration of 20 micromoles per liter. The results obtained are shown in FIG. 4, FIG. 4A relating to the results on cell viability and FIG. 4B relating to the results on cell toxicity.

[2] = tested on: wild cell line (CHO) of hamster ovarian cells; assay: Anti-proliferative effect on CHO cells, counting of cell nuclei (Hoechst 33342); format: cell-based; details: read-out: IC50 CHO
Method: as §1
The IC50 inhibitor concentration corresponding to the concentration in Quilamines enables the inhibition at 50% of the cell proliferation was deduced from the dose-effect curves of numeration of the nuclei of the living cells on the CHO and CHO-MG cell lines. […] The lower the value of IC50, the greater the efficiency of the anti-proliferative effect of the tested chelators.
as §2

[3] = Potentiometry: stability constants and pFe3+ of the iron complex; format: physicochemical; details: pH 7.4
Method: The complexation affinity of Quilamine with the metal ion in the organism reflects the chelating capacity or chelating power of Quilamine. This affinity can be assessed by measuring the value of pW corresponding to −log of the concentration in free metal ion W, i.e. non-complexated by the Quilamine for a ratio of respective concentrations of Quilamine (10 micromoles per liter) and metal ion (1 micromole per liter) equal to 10, at 25° C. and pH 7.4. The higher the value of pW, the greater the affinity of Quilamine with metal ion. The affinity of Quilamine with iron in its ferric form (Fe(III)) and its ferrous form (Fe(II)) is measured respectively by pFe^3+ and pFe^2+ at physiological pH (pH=7.4), at 25° C.
Potentiometry measurements were made in thermostated titration cells at 25±0.1° C., using a Metrohm 702 SM Titrino titrator connected to a Metrohm 6.0233.100. The ligand solution is prepared in a concentration of ˜1.5×10^−3 moles per liter, the solution of Fe^3+ is made from FeCl3 and titrated by complexation with a standard solution of EDTA (ethylenediaminetetracetic acid). The sample for the measurement contained approximately 0.03 millimoles per liter of ligand in a volume of 30 ml where the ionic strength is maintained at 0.1 mole per liter in using KNO3 as a support electrolyte. During the titrations, Fe^3+ is added to 0.45 or 0.9 equivalents of ligand. Each titration consists of 150-200 equilibrium points with pH varying from 2.0 to 11.5, and is repeated at least twice. The thermodynamic constants are computed with the software […] and the speciation diagram of the species is done by the Hyss program.

Caco-2 cells [4] = assay: LDH release of Caco-2 cells; format: cell-based, human; details: for % LDH/control 10 μM: Caco-2 J4, 10 μM; for % LDH/control 100 μM: Caco-2 J4, 100 μM
Method: (§3) The action of Quilamines on the cell viability was analyzed on enterocyte cells of the Caco-2 tumor cell line derived from human colon carcinoma and compared with the action of ICL670 in the presence or absence of exogenous iron, after activation (DFMO) or competitive inhibition by spermidine, of the PTS. The operating conditions used are identical to those used for CHO/CHO-MG and HepG2 cells.
As in the case of the other cell lines in proliferative phase presented here above, the dose-effect curves of the action of the Quilamines on the number of viable cells (number of nuclei) are biphase curves with a cytostatic constituent for concentration values of below 30 micromoles per liter and a cytotoxic constituent with release of LDH for concentration values above 30 micromoles per liter. Only this second cytotoxic constituent is observed when the cells of the Caco-2 cell line are treated after confluence (stopping of the proliferation).

Caco-2 cells [5] = assay: Cell viability of proliferating Caco-2 cells (number of nuclei); format: cell-based, human; details: for Constituent 2 (10-100 μM) % cell / Constituent 1 (1-10 μM) % cell: Caco-2 J4, no exogenous iron
Method: as §3
The results for the measurement of the anti-proliferative effect of Quilamines, and of ICL670 on the proliferating cells (cytostatic constituent) when there is no exogenous iron have been listed in the table 4 below.

[6] = pH 7.4; stated reference values; cited from earlier work
HepG2 cells = assay: Anti-proliferative effect on HepG2 cells (nuclei count or SDH activity); format: cell-based, human; details: 72 h; for IC50: HepG2, absence of exogenous iron, read-out: IC50 associated with the cytostatic effect; for % of HepG2 cells concerned by the anti-proliferative effect: absence of exogenous iron
Text: The majority of the Quilamines, like ICL670, show biphase dose-effect curves in the absence of exogenous iron, with an anti-proliferative constituent for concentration values of 1 to 10 micromoles per liter and a cytotoxic constituent associated with a release of LDH for concentration values of over 10 micromoles per liter. The percentage of HepG2 cells concerned by the anti-proliferative effect and the values of IC50 associated with this cytostatic effect in the absence of exogenous iron were listed in the table 4 below.
The implication of PTS in the cytostatic and cytotoxic action of Quilamines was analyzed in proliferating HepG2 hepatocyte tumor cells after activation of PTS or competitive inhibition of PTS by spermidine, a polyamine naturally present in the organism and most efficaciously captured by the PTS. The conditions of treatment by Quilamines are identical to those described in paragraph III-1.
Inhibiting ornithine decarboxylase (ODC), the key enzyme in the biosynthesis of polyamines, causes a depletion of intra-cell polyamines and an activation of PTS which enables the deficiency to be met. This activation of PTS is done by means of the ODC inhibitor, alpha-difluoromethyl ornithine (DFMO).
The competitive inhibition of PTS by spermidine is prompted by the co-treatment of the cells by the Quilamines in the presence of spermidine, in a concentration of 50 micromoles per liter.

[7] = Calcein test: shift of iron(III) complexated with calcein; format: physicochemical; details: pH 7.4
Method: The Quilamines HQ1-34, HQ1-344, HQ1-343, HQ1-33, HQ1-333, HQ1-44, HQ1-43, HQ1-444, HQ1-443 according to the invention were synthesized and tested. For each Quilamine, its capacity to shift iron (III) complexated with calcein was tested. Calcein is a fluorescent molecule which has a pFe3+ value of 20.3 with pH 7.4 close to the value measured for ligands of low molecular weight present in human or animal cells and complexating the labile iron pool, such as citrate which has a pFe^3+ value of 19.3 with pH of 7.4 (LIP). The fluorescence of calcein is detected on a microplate, in a concentration of 0.1 micromole per liter, in solution in a HEPES buffer (4-(2-hydroxyethyl)-1-piperazine ethane sulfonic acid) with pH 7.4, in a Fusion (Packard) type a microplate fluorescence reader, under excitation at 450 nanometers and analysis of the fluorescence emission at 515 nanometers. The fluorescence of calcein is extinguished in the presence of iron(III) in the form of hydrochloride (chloride) with a concentration of 1 micromole per liter. The addition of Quilamine in different concentrations ranging from 0.01 to 40 micromoles per liter prompts the shifting of iron(III) complexated with calcein towards Quilamine, resulting in a restoration of the fluorescence of the calcein. The dose-effect curves expressing the percentage of restoration of fluorescence of calcein (relative to the fluorescence of the free molecule in the absence of iron), for each Quilamine concentration, makes it possible to deduce the Quilamine concentration prompting the 50% shift of Fe(III) from calcein and the restoration of its associated fluorescence (CE50). These concentration values CE50 are inversely proportional to the chelating capacity of the chelators and the aptitude to mobilize iron from the LIP of the organism.
Comparatively, measurements were made, under the same conditions, of the efficacy in shifting iron(III) complexated with calcein of the two prior-art chelators, 8-hydroxyquinoline and O-trensox, the latter being currently considered to be the chelator having the greatest affinity for iron.

[8] = 72 h treatment, no exogenous iron
[9] = Caco-2 J4, cytostatic constituent, no exogenous iron, read-out: Constituent 1 (1-10 μM) IC50
[10] = Caco-2 J4, cytotoxic constituent, no exogenous iron, read-out: Constituent 2 (10-100 μM) IC50

Structure (SMILES)	IC50 ([1]; CHO-MG)	Ratio IC50 (CHO-MG/CHO) [1]	influence of exogenous iron on the cytotoxic effect (CHO cells; Fe(III) citrate 20 micromoles per liter)	chelator concentration giving cytotoxic effect with release of LDH (CHO cells; absence of exogenous iron)	IC50 ([2]; CHO, 72 h)	pFe3+ [3]	% LDH/control 10 μM (Caco-2 cells [4])	% LDH/control 100 μM (Caco-2 cells [4])	Constituent 2 (10-100 μM) % cell (Caco-2 cells [5])	IC50 (Caco-2 cells [5]; Homo sapiens, Caco-2, read-out: Constituent 2 (10-100 μM) IC50)	pFe3+ [6]	IC50 [1]	IC50 (HepG2 cells)	% of HepG2 cells concerned by the anti-proliferative effect (HepG2 cells)	IC50 [2, 8]	chelating capacity of HQ1-3 type compared with HQ1-4 type Quilamines [7]	IC50 (Caco-2 cells [5]; [9])	IC50 (Caco-2 cells [5]; [10])	Constituent 1 (1-10 μM) % cell (Caco-2 cells [5])
Oc1cccc2cccnc12 [8-hydroxyquinoline, reference compound]	10.5 µM	2	no modification	greater than or equal to 5 micromoles per liter	5 µM	20.6	281%	353%	100%	5 µM									
O=C(O)CC(O)(CC(=O)O)C(=O)O [citrate]											19.3								
NCCCNCCCNCCCNCc1ccc2cccc(O)c2n1 [HQ1-333]		18					112%	169%	80%			277 µM	1 µM	12.5%	15.1 µM	better chelating capacity	3 µM	60 µM	20%
O=C(O)CN(CC(=O)O)Cc1cc2c(cc1O)Oc1cc(O)c(CN(CC(=O)O)CC(=O)O)cc1C21OC(=O)c2ccccc21 [Calcein, reference compound]											20.3								
NCCCNCCCNCc1ccc2cccc(O)c2n1 [HQ1-33]		21					118%	261%	60%			118 µM	1.5 µM	10%	5.7 µM	better chelating capacity	0.8 µM	37 µM	40%
